Reference: US10392599B2, “Method for non-freeze low-temperature preservation of mammalian embryo or fertilized egg” (NATIONAL FEDERATION OF AGRICULTURAL COOPERATIVE ASSOCIATIONS, priority 2012, dated 2019)

Legend:
[1] = pH of the preservative solution upon completion of preservation; assay type: physicochemical; details: for pH of the medium upon completion of the refrigerated storage for 7 days: Good's buffer 25 mM, FBS 50% (v/v), medium 199; for pH upon completion of preservation: medium 199, 7 days
Experimental: Preservation of bovine embryos was carried out as follows (FIG. 1). First, a preservative solution alone was sucked into a straw having a capacity of 0.25 ml, and, after introduction of an air layer, a bovine embryo contained in the preservative solution was sucked. Thereafter, an air layer was introduced, and the preservative solution alone was sucked again. The straw was then sealed. Subsequently, the straw containing the sucked bovine embryo was immersed in water contained in a plastic container (plastic tube) which had been preliminarily cooled to 4 to 5° C. The plastic container was then stored in a refrigerator for 7 days at 4 to 5° C. […]

bovine embryos [2] = test: in vitro culture test of low-quality bovine embryos after 7 days of non-freezing preservation (survival, hatching); assay type: cell-based, Japanese Black Cattle and Holstein Cattle; details: for Hatched embryos (%) / Survival rate (%) / Hatched embryos: number / Survival rate: number of surviving embryos: medium 199, low temperature 7 days; for Hatched embryos: number / Survival rate: number of surviving embryos: out of N; for Number of hatched embryos (%) / Number of live embryos (%) / Number of hatched embryos / Number of live embryos: medium 199, 7 days non-frozen
Experimental: (§1) Embryos collected from donor bovine animals of Japanese Black Cattle and Holstein Cattle after superovulation were evaluated for their qualities according to the regulation by International Embryo Transfer Society (IETS manual. Manual of the international embryo transfer society. In: Stringfellow D A, Seidel S M, editors. Savoy, Ill., USA: IETS 1998). Low-quality embryos were subjected to an in vitro culture test after 7 days of non-freezing preservation, and high-quality embryos were subjected to investigation of the conception rate after implantation to recipient cattle.
(§2) Preservation of bovine embryos was carried out as follows (FIG. 1). First, a preservative solution alone was sucked into a straw having a capacity of 0.25 ml, and, after introduction of an air layer, a bovine embryo contained in the preservative solution was sucked. Thereafter, an air layer was introduced, and the preservative solution alone was sucked again. The straw was then sealed. Subsequently, the straw containing the sucked bovine embryo was immersed in water contained in a plastic container (plastic tube) which had been preliminarily cooled to 4 to 5° C. The plastic container was then stored in a refrigerator for 7 days at 4 to 5° C.
(§3) After the non-freezing preservation, the bovine embryo was washed 3 times by immersion in PBS(+) containing 5% (v/v) fetal bovine serum (FBS). The washed bovine embryo was cultured under 5% CO2 at 38° C. in CR1aa medium containing 5% (v/v) FBS for 48 hours. Morphological observation was carried out under a stereoscopic microscope, and the embryo was judged to be alive if the progress of cleavage by the culture could be found and the cytoplasmic membrane was not disrupted. Live cells were checked for whether hatching from the zona pellucida could be observed or not. A bovine embryo washed with PBS(+) containing 5% (v/v) FBS was nonsurgically implanted into the deep part of the corpus-luteum-side uterine horn of each recipient cattle on Day 6 to 8 of an estrous cycle (the date of estrus was defined as Day 0). On Days 30 and 60 of the estrous cycle, pregnancy diagnosis was carried out. For a significance test to verify the effect of the embryo preservation solution according to the present invention, a χ^2 test was used.
(§4) To medium 199 (Invitrogen) supplemented with antibiotics (penicillin G potassium and streptomycin sulfate), FBS was added to 20 to 50% (v/v), and HEPES was also added to a concentration of 0 to 100 mM. In the conception test, a group in which a special peptide having a protection effect against low temperature (mature Nfel1, SEQ ID NO:2) was added was also provided. In addition, in order to investigate the effects of other Good's buffers other than HEPES, preservation solutions were prepared by adding FBS and a Good's buffer (PIPES or MOPS) to medium 199 such that the concentration of FBS was 50% (v/v) and the concentration of the Good's buffer was 25 mM. These preservation solutions were sterilized by filtration through a filter having a pore size of 0.2 μm, and stored in a refrigerator until use.
Using medium 199 to which a Good's buffer was added at 25 mM (FBS concentration, 50% (v/v) FBS), bovine embryos were preserved at low temperature for 7 days, and the survival rate and the hatching rate were investigated by the method described above. […] In Table 3, “pH” indicates the pH of the medium upon completion of the refrigerated storage for 7 days.

bovine embryos [3] = test: conception test: implantation of high-quality bovine embryos preserved 7 days in the non-frozen state into recipient cattle; assay type: in vivo; details: 25 mM HEPES; for Conceptus number on Day 30 / Conceptus number on Day 60: 16 implanted embryos
Experimental: as §1, §2, §3, §4
Subsequently, the conception ability of high-quality bovine embryos that had been preserved in the non-frozen state for 7 days was investigated. Since the concentration of HEPES generally recommended for use in cell culture is 10 to 25 mM (Luo S et al., Effect of HEPES buffer on the uptake and transport of P-glycoprotein substrates and large neutral amino acids. Mol Pharm 2010; 7:412-420), the concentration of HEPES in the non-freezing preservative solution used in the present test for investigation of the conception ability was set to 25 mM. The special recombinant peptide having a protection effect against low temperature (mature Nfel1 peptide) was added to medium 199 containing 50% (v/v) FBS supplemented with 25 mM HEPES, to see whether the peptide improves the conception ability or not.

bovine embryos [4] = details: mature Nfel1 in combination with about 20 to 50% (v/v) serum; cited from earlier work
[5] = Good's buffer 25 mM, FBS 50% (v/v)
[6] = medium 199, 50% (v/v) FBS, 7 days non-frozen
[7] = 12.5 mM HEPES, 20% FBS, 35 tested embryos
[8] = 12.5 mM HEPES, 50% FBS, 35 tested embryos
[9] = 25 mM HEPES, 20% FBS, 36 tested embryos
[10] = 25 mM HEPES, 50% FBS, 36 tested embryos
[11] = 50 mM HEPES, 20% FBS, 30 tested embryos
[12] = 50 mM HEPES, 50% FBS, 30 tested embryos
[13] = 100 mM HEPES, 50% FBS, 20 tested embryos
[14] = 25 mM tris (pH adjusted to 7.2 with hydrochloric acid), medium 199, 50% (v/v) FBS, 7 days

For `O=S(=O)(O)CCCN1CCN(CCO)CC1` [EPPS, 3-[4-(2-Hydroxyethyl)-1-piperazinyl]propanesulfonic acid], the “pH of the medium upon completion of the refrigerated storage for 7 days” value (“pH of the medium upon completion … for 7 days” below) [1] was 7.3, the “Hatched embryos (%)” value (bovine embryos [2]; [5]) was 10.0% and the “Survival rate (%)” value (bovine embryos [2]; [5]) was 35.0%. The “Hatched embryos: number” value (bovine embryos [2]; [5]) was 2 and the “Survival rate: number of surviving embryos” value (shortened to “Survival rate: number”) (bovine embryos [2]; [5]) was 7.
For `O=S(=O)(O)CCN1CCN(CCO)CC1` [HEPES, 4-(2-hydroxyethyl)-1-piperazineethanesulfonic acid], the “pH upon completion of preservation” value ([1]; 12.5 mM HEPES, 20% FBS) was 7.4, the “pH upon completion of preservation” value ([1]; 12.5 mM HEPES, 50% FBS) was 7.4 and the “pH upon completion of preservation” value ([1]; 25 mM HEPES, 20% FBS) was 7.3. For the same compound, the “pH upon completion of preservation” value ([1]; 25 mM HEPES, 50% FBS) was 7.0, the “pH upon completion of preservation” value ([1]; 50 mM HEPES, 20% FBS) was 6.9 and the “pH upon completion of preservation” value ([1]; 50 mM HEPES, 50% FBS) was 6.8. The “pH upon completion of preservation” value ([1]; 100 mM HEPES, 50% FBS) was 6.9, the “pH of the medium upon completion … for 7 days” value [1] was 7.0 and the “pH of the non-freezing preservative solution containing HEPES upon completion of the preservation” value ([1]; HEPES-containing solutions of Table 1) was 6.9 to 7.4. The conception rate (bovine embryos [3]; high-quality bovine embryos, 7 days non-frozen, medium 199, 50% (v/v) FBS) was 75.0%, the “Conceptus number on Day 30 (%)” value (bovine embryos [3]; [6]) was 75.0% and the “Conceptus number on Day 60 (%)” value (bovine embryos [3]; [6]) was 75.0%. For the same compound, the birth of calves (bovine embryos [3]; [6]) was “birth of normal calves could be observed”, the “death of early embryos between Day 30 and Day 60 of pregnancy” value (bovine embryos [3]; [6]) was “not found” and the “Conceptus number on Day 30” value (bovine embryos [3]; [6]) was 12. The “Conceptus number on Day 60” value (bovine embryos [3]; [6]) was 12, the “Number of hatched embryos (%)” value (bovine embryos [2]; 12.5 mM HEPES, 20% FBS) was 8.6% and the “Number of live embryos (%)” value (bovine embryos [2]; 12.5 mM HEPES, 20% FBS) was 25.7%. For the same compound, the “Number of hatched embryos” value (bovine embryos [2]; [7]) was 3, the “Number of live embryos” value (bovine embryos [2]; [7]) was 9 and the “Number of hatched embryos (%)” value (bovine embryos [2]; 12.5 mM HEPES, 50% FBS) was 25.7%. For the same compound, the “Number of live embryos (%)” value (bovine embryos [2]; 12.5 mM HEPES, 50% FBS) was 54.3%, the “Number of hatched embryos” value (bovine embryos [2]; [8]) was 9 and the “Number of live embryos” value (bovine embryos [2]; [8]) was 19. For the same compound, the “Number of hatched embryos (%)” value (bovine embryos [2]; 25 mM HEPES, 20% FBS) was 25.0%, the “Number of live embryos (%)” value (bovine embryos [2]; 25 mM HEPES, 20% FBS) was 63.9% and the “Number of hatched embryos” value (bovine embryos [2]; [9]) was 9. The “Number of live embryos” value (bovine embryos [2]; [9]) was 23, the “Number of hatched embryos (%)” value (bovine embryos [2]; 25 mM HEPES, 50% FBS) was 36.1% and the “Number of live embryos (%)” value (bovine embryos [2]; 25 mM HEPES, 50% FBS) was 69.4%. For the same compound, the “Number of hatched embryos” value (bovine embryos [2]; [10]) was 13, the “Number of live embryos” value (bovine embryos [2]; [10]) was 25 and the “Number of hatched embryos (%)” value (bovine embryos [2]; 50 mM HEPES, 20% FBS) was 26.7%. For the same compound, the “Number of live embryos (%)” value (bovine embryos [2]; 50 mM HEPES, 20% FBS) was 63.3%, the “Number of hatched embryos” value (bovine embryos [2]; [11]) was 8 and the “Number of live embryos” value (bovine embryos [2]; [11]) was 19. The “Number of hatched embryos (%)” value (bovine embryos [2]; 50 mM HEPES, 50% FBS) was 33.3%, the “Number of live embryos (%)” value (bovine embryos [2]; 50 mM HEPES, 50% FBS) was 73.3% and the “Number of hatched embryos” value (bovine embryos [2]; [12]) was 10. The “Number of live embryos” value (bovine embryos [2]; [12]) was 22, the “Number of hatched embryos (%)” value (bovine embryos [2]; 100 mM HEPES, 50% FBS) was 20.0% and the “Number of live embryos (%)” value (bovine embryos [2]; 100 mM HEPES, 50% FBS) was 65.0%. The “Number of hatched embryos” value (bovine embryos [2]; [13]) was 4, the “Number of live embryos” value (bovine embryos [2]; [13]) was 13 and the “effect to protect embryos during non-freezing low-temperature preservation, compared among Good's buffers” value (bovine embryos [2]; Good's buffer 25 mM, FBS 50% (v/v), medium 199, 7 days) was “highest effect”. For the same compound, the “Hatched embryos (%)” value (bovine embryos [2]; [5]) was 36.1%, the “Survival rate (%)” value (bovine embryos [2]; [5]) was 69.4% and the “Hatched embryos: number” value (bovine embryos [2]; [5]) was 13. The “Survival rate: number” value (bovine embryos [2]; [5]) was 25, the “survival rate after preservation for 7 days compared to the HEPES-free group” value (bovine embryos [2]; HEPES 12.5 to 100 mM, low-quality bovine embryos) was “higher survival rate” and the “rate of hatching from the zona pellucida” value (bovine embryos [2]; HEPES 25 to 50 mM, FBS 50% (v/v)) was “especially high”.
With `O=S(=O)(O)CCCN1CCOCC1` [MOPS, 3-Morpholinopropanesulfonic acid] the “pH of the medium upon completion … for 7 days” value [1] was 7.0, the “Hatched embryos (%)” value (bovine embryos [2]; [5]) was 25.0% and the “Survival rate (%)” value (bovine embryos [2]; [5]) was 45.0%. The “Hatched embryos: number” value (bovine embryos [2]; [5]) was 5 and the “Survival rate: number” value (bovine embryos [2]; [5]) was 9.
For `O=S(=O)(O)CCN1CCN(CCS(=O)(=O)O)CC1` [PIPES, Piperazine-1,4-bis(2-ethanesulfonic acid)], the “pH of the medium upon completion … for 7 days” value [1] was 7.0, the “Hatched embryos (%)” value (bovine embryos [2]; [5]) was 25.0% and the “Survival rate (%)” value (bovine embryos [2]; [5]) was 40.0%. The “Hatched embryos: number” value (bovine embryos [2]; [5]) was 5 and the “Survival rate: number” value (bovine embryos [2]; [5]) was 8.
In the case of `O=S(=O)(O)CCNC(CO)(CO)CO` [TES, N-Tris(hydroxymethyl)methyl-2-aminoethanesulfonic acid], the “pH of the medium upon completion … for 7 days” value [1] is reported as 7.2, the “Hatched embryos (%)” value (bovine embryos [2]; [5]) is reported as 15.0% and the “Survival rate (%)” value (bovine embryos [2]; [5]) is reported as 30.0%. For the same compound, the “Hatched embryos: number” value (bovine embryos [2]; [5]) was 3 and the “Survival rate: number” value (bovine embryos [2]; [5]) was 6.
With “Special recombinant peptide: special peptide having a protection effect against low temperature (mature Nfel1, SEQ ID NO:2), 66 residues, expressed in E. coli” the “Conceptus number on Day 30 (%)” value (bovine embryos [3]; [6]) was 75.0%, the “Conceptus number on Day 60 (%)” value (bovine embryos [3]; [6]) was 75.0% and the “Conceptus number on Day 30” value (bovine embryos [3]; [6]) was 12. The “Conceptus number on Day 60” value (bovine embryos [3]; [6]) was 12, the conception-promoting effect (bovine embryos [3]; peptide added to medium 199, 50% (v/v) FBS) was “No conception-promoting effect was found” and the “period of preservation of bovine embryos at non-freezing low temperature” value (bovine embryos [4]) was “up to 5 days”.
In the case of “tris(hydroxymethyl)aminomethane [reference compound]”, the “pH after the low-temperature preservation” value ([1]; 25 mM tris, medium 199, 50% (v/v) FBS, 7 days) is reported as 7.2, the “hatching rate after the preservation” value (bovine embryos [2]; [14]) is reported as 5.0% and the “survival rate after the preservation” value (bovine embryos [2]; [14]) is reported as 10.0%.
